{"source": "paper PMC6469618", "about": "(Environmental Science and Pollution Research International, 2019)", "key": {"[1]": {"tested_on": "nine-spine stickleback (Pungitius pungitius)", "experiment": "Study 2: uptake in muscle tissue of stickleback", "settings": "for Start relative tissue concentration (Cb/Cw): 60 min after dosing", "quoted_text": "(§5) Nine-spine stickleback were collected using umbrella traps from ponds in Röbäck, Sweden, in July 2017. Fish were housed in a large, aerated, ground water flow-through tank (1500 L) until the start of the experiment. Fish were fed frozen chironomid larvae until satiation once daily. Water louse were collected using sweep nets from Djupsundsbäcken near Holmsund, Sweden, in January 2018. Water louse were kept in aerated containers with detritus (predominately alder leaf litter) until the start of the experiment.\n(§6) Stickleback and water louse were exposed to 187 ng/L (nominal concentration) methylphenidate at two temperature treatments: 10 °C (in a climate chamber) and 20 °C (ambient room temperature). Both exposures were maintained at the same light cycle used in study 1. Organisms were exposed under static conditions using three replicate glass aquaria filled with 20 L water. The aquaria were equipped with an airstone and two ceramic clay pots for shelter in each temperature treatment. Fish were exposed in two tanks, while water louse were exposed separately in the remaining tank. Water from each tank was sampled at 0 min (immediately after dosing), 15 min, 30 min, 60 min, 4 h, 8 h, 24 h, 3 days, 5 days, 7 days, 9 days, 10 days, 11 days, 12 days, and 13 days. Three to six water louse and three to six fish were sampled at each of the following time points: 60 min, 4 h, 8 h, 24 h, 3 days, 5 days, 7 days, 9 days, 10 days, 11 days, 12 days, and 13 days. Fish were euthanized via cerebral concussion and spinal severance. Water quality measures of pH (Merck pH Universal Indicator Strips), dissolved oxygen, and temperature (YSI Pro DO Series) were verified in the exposure tanks on the final days of sampling. For the low (10 °C) and high (20 °C) temperature rooms, respectively, water temperature was (mean ± s.d.) 10.03 ± 0.32 °C and 17.07 ± 0.21 °C; dissolved oxygen was 14.40 ± 0.27 mg/L and 12.30 ± 0.30 mg/L; and there were no changes in pH (7 ± 0, for both temperatures).\n(§7) Immediately after sampling, all water and organisms sampled were frozen at − 20 °C until further processing. Muscle tissue (mean ± s.d. 0.09 ± 0.02 g; range 0.02–0.13 g) was dissected from each stickleback by taking a section of the dorsal axial muscle. Water louse collected from each temperature treatment (10 °C and 20 °C) on each sampling day were pooled due to low sample weight before extracting whole-body tissue (0.05 ± 0.01 g; range 0.03–0.07 g). However, when enough tissue was available, multiple water louse samples were analysed. To each sample, 5 ng (50 μL) of the internal standard methylphenidate-D9 (Cerilliant, USA; in methanol, HPLC-grade, Fisher Chemical, Loughborough, UK) was added. For both stickleback and water louse, tissues were extracted using 1.5 ml acetonitrile (HPLC-grade, Fisher Chemical, Loughborough, UK) repeated twice (based on the method used by Brodin et al. [2013]; McCallum et al. [2017], [2018]). The samples were homogenized and extracted for 4 min at 42,000 oscillations per minute (Mini Beadbeater, Biospec. Bartlesville, USA) with zirconium beads and then centrifuged the samples at 17,500 g for 10 min (Beckman Coulter Microfuge 22R Centrifuge). This protocol was used for both eluent mixtures, and the supernatants were combined. The combined supernatants were evaporated to 20 μl and the sample was reconstituted in 100 μl methanol (HPLC-grade, Fisher Chemical, Loughborough, UK). […]"}, "[2]": {"tested_on": "humans", "settings": "standard dose (18 mg); ref Faraj et al. 1974; Concerta Prescribing Information 2013; cited from earlier work"}, "[3]": {"settings": "ref SciFinder; cited from earlier work"}, "[4]": {"tested_on": "guppies (Poecilia reticulata)", "set-up": "method as in De Serrano et al. 2016", "settings": "adult guppies exposed to 250 ng/L; ref De Serrano et al. 2016; cited from earlier work"}, "[5]": {"tested_on": "rhesus macaque", "settings": "oral administration, ref Gualtieri et al. 1982, Doerge et al. 2000; cited from earlier work"}, "[6]": {"tested_on": "zebrafish (Danio rerio)", "set-up": "method as in Endres et al. 2017", "settings": "stressed zebrafish; environmentally relevant concentrations; ref Endres et al. 2017; cited from earlier work"}, "[7]": {"tested_on": "zebrafish", "set-up": "method as in Levin et al. 2011", "settings": "zebrafish exposed to 50 mg/L as embryos; ref Levin et al. 2011; cited from earlier work"}, "[8]": {"experiment": "in vivo", "settings": "water louse (Asellus aquaticus), 187 ng/L", "quoted_text": "as §5, §6\n(§8) Immediately after sampling, all water and organisms sampled were frozen at − 20 °C until further processing. Muscle tissue (mean ± s.d. 0.09 ± 0.02 g; range 0.02–0.13 g) was dissected from each stickleback by taking a section of the dorsal axial muscle. Water louse collected from each temperature treatment (10 °C and 20 °C) on each sampling day were pooled due to low sample weight before extracting whole-body tissue (0.05 ± 0.01 g; range 0.03–0.07 g). However, when enough tissue was available, multiple water louse samples were analysed. To each sample, 5 ng (50 μL) of the internal standard methylphenidate-D9 (Cerilliant, USA; in methanol, HPLC-grade, Fisher Chemical, Loughborough, UK) was added. For both stickleback and water louse, tissues were extracted using 1.5 ml acetonitrile (HPLC-grade, Fisher Chemical, Loughborough, UK) repeated twice (based on the method used by Brodin et al. [2013]; McCallum et al. [2017], [2018]). The samples were homogenized and extracted for 4 min at 42,000 oscillations per minute (Mini Beadbeater, Biospec. Bartlesville, USA) with zirconium beads and then centrifuged the samples at 17,500 g for 10 min (Beckman Coulter Microfuge 22R Centrifuge). This protocol was used for both eluent mixtures, and the supernatants were combined. The combined supernatants were evaporated to 20 μl and the sample was reconstituted in 100 μl methanol (HPLC-grade, Fisher Chemical, Loughborough, UK)."}, "[9]": {"experiment": "in vivo", "settings": "nine-spine stickleback (Pungitius pungitius), 187 ng/L", "quoted_text": "as §5, §6, §7"}, "[10]": {"experiment": "Study 2: static water + biota, concentrations in the water column", "settings": "for Water concentration, measured end / Water concentration, measured start / half-life at 187 ng/L / Formation time of ritalinic acid in water: static + biota; for Water concentration, measured end: final sampling day; for Water concentration, measured end / Water concentration, measured start: nominal 187 ng/L methylphenidate, mean ± s.d.; for Water concentration, measured start: immediately after dosing, Ntanks = 3; for half-life at 187 ng/L: aquarium water with biota (stickleback or water louse), pH 7, Half-life of methylphenidate in water", "description": "Stickleback and water louse were exposed to 187 ng/L (nominal concentration) methylphenidate at two temperature treatments: 10 °C (in a climate chamber) and 20 °C (ambient room temperature). Both exposures were maintained at the same light cycle used in study 1. Organisms were exposed under static conditions using three replicate glass aquaria filled with 20 L water. The aquaria were equipped with an airstone and two ceramic clay pots for shelter in each temperature treatment. Fish were exposed in two tanks, while water louse were exposed separately in the remaining tank. Water from each tank was sampled at 0 min (immediately after dosing), 15 min, 30 min, 60 min, 4 h, 8 h, 24 h, 3 days, 5 days, 7 days, 9 days, 10 days, 11 days, 12 days, and 13 days. Three to six water louse and three to six fish were sampled at each of the following time points: 60 min, 4 h, 8 h, 24 h, 3 days, 5 days, 7 days, 9 days, 10 days, 11 days, 12 days, and 13 days. Fish were euthanized via cerebral concussion and spinal severance. Water quality measures of pH (Merck pH Universal Indicator Strips), dissolved oxygen, and temperature (YSI Pro DO Series) were verified in the exposure tanks on the final days of sampling.\n(§1) Fifty microlitres of methylphenidate-D9 (500 ng/L) was added to 10-ml aliquots of the aqueous samples, filtered (0.45 μm, Filtropur S, Sarstedt, N~umbrecht, Germany), and acidified with 10 μL formic acid (0.1% v/v, Merck KGaA, Darmstadt, Germany) to a pH of 2.7.\n(§2) All of the samples were injected to an EQuan MAX Plus LC-Quantiva triple quadrupole MS/MS (Thermo Scientific, San Jose, USA). A 10-μL injection volume was used for stickleback/louse extracts and the calibration curve. For the aqueous samples, and the corresponding calibration curve, a 1-mL injection volume was used and preconcentrated the analytes on an online-connected Oasis HLB column (2.1 × 20 mm, 15 μm Waters, Milford, USA) using column switching (70 s transfer time and 180 s elution time). Milli-Q ultra-pure water (Millipore) and methanol (Lichrosolv, Hypergrade, Merck) were used as mobile phases (both containing 0.1% formic acid (Suprapur, Merck KGaA), v/v) together with Hypersil GOLD columns (Thermo Scientific) as stationary phases: guard (20 × 2.1 mm, 3 μm) and analytical (50 × 2.1 mm, 3 μm). The flow rate was kept at 350 μL/min, and we used two linear gradients. The gradient for the stickleback/louse extracts were as follows: 0–2 min, methanol 2%; 2–4 min, methanol 2–100%; 4–6 min, methanol 100%; and 6.01–7.5 min, methanol 2%. For the aqueous samples, the gradient was 0–2 min, methanol 2%; 2–4.75 min, methanol 2–100%; 4.75–7 min, methanol 100%; and 7.01–9 min, methanol 2%.\n(§3) Positive polarity and a heated electrospray at 338 °C, an ion transfer tube temperature at 350 °C, and a spray voltage at 3.5 kV were used. […] See supplementary materials for QA/QC data.\n(§4) All analyses were conducted in R (version: 3.5.0; R Core Team [2018]). […] Welch’s two-sample t tests were used to analyse whether methylphenidate degradation in the water column was impacted by temperature treatment. […] Degradation/formation rate, kd, is the slope given by a linear regression analysis. […] Relative tissue uptake was calculated at each sampling point."}, "[11]": {"tested_on": "human", "settings": "oral administration, ref Gualtieri et al. 1982, Doerge et al. 2000; cited from earlier work"}, "[12]": {"experiment": "Study 1: static water only, stability of methylphenidate and breakdown to ritalinic acid", "settings": "for Water concentration, measured end: final sampling day; for Water concentration, measured end / Water concentration, measured start: nominal 1870 ng/L methylphenidate, Ntanks = 1; for Water concentration, measured start: immediately after dosing", "description": "A total of 1870 ng/L (nominal concentration) of methylphenidate (1 mL of the stock solution) was added to a glass aquarium filled with 20 L of ground water. The tank was aerated and kept at 20 °C (ambient room temperature). Water was sampled at 0 min (immediately after dosing), 5 min, 15 min, 45 min, 90 min, 4 h, 10 h, 24 h, 2 days, 3 days, 4 days, 5 days, 7 days, and 12 days. This exposure was conducted in a windowless room with a light-dark cycle of 13L:11D.\nas §1, §2, §3, §4"}, "[13]": {"tested_on": "water louse (Asellus aquaticus)", "experiment": "Study 2: uptake in whole-body tissue of water louse", "settings": "for Start relative tissue concentration (Cb/Cw): 60 min after dosing; for End relative tissue concentration (Cb/Cw): final sampling day", "quoted_text": "as §5, §6, §8"}, "[14]": {"tested_on": "water louse", "settings": "naturalistic pond experiment; ref Lagesson et al. 2016; cited from earlier work"}}, "note": "Several values for one entry are separate records, joined by “and”; a condition that tells them apart may be missing. Identical values can stand only once.", "data": [{"compound": "COC(=O)C(c1ccccc1)C1CCCCN1", "note": "(stereo not drawn) [methylphenidate]", "values": [{"measurement": "Time of highest tissue concentration (first sampling point)", "setting": "[1]", "result": 60, "unit": "min"}, {"measurement": "Time of highest tissue concentrations", "setting": "[1]", "result": "≤ 4", "unit": "h"}, {"measurement": "Start relative tissue concentration (Cb/Cw)", "setting": "[1]; 10 °C", "result": "1.2 ± 0.5 (0.7–2.1)"}, {"measurement": "Start relative tissue concentration (Cb/Cw)", "setting": "[1]; 20 °C", "result": "0.5 ± 0.1 (0.4–0.7)"}, {"measurement": "Share of dose excreted as ritalinic acid", "setting": "[2]", "result": "up to 80%"}, {"measurement": "pKa", "setting": "[3]", "result": 9.5}, {"measurement": "Effect on anxiety behaviours", "setting": "[4]", "result": "Reductions in anxiety behaviours"}, {"measurement": "Time of peak in plasma", "setting": "[5]", "result": "1 to 4", "unit": "h"}, {"measurement": "Effect on anxiety-like behaviours (e.g., freezing, hiding)", "setting": "[6]", "result": "inhibited anxiety-like behaviours"}, {"measurement": "Effect on anxiety behaviours", "setting": "[7]", "result": "Reductions in anxiety behaviours"}, {"measurement": "concentration at 60 min", "setting": "[8]", "result": 0.2, "unit": "ng/g"}, {"measurement": "concentration at 13 days", "setting": "[8]", "result": 0.1, "unit": "ng/g"}, {"measurement": "concentration at 60 min", "setting": "[9]", "result": 0.18, "unit": "ng/g"}, {"measurement": "Water concentration, measured end", "setting": "[10]; 10 °C", "result": "28 ± 4", "unit": "ng/L"}, {"measurement": "Water concentration, measured start", "setting": "[10]; 10 °C", "result": "192 ± 28", "unit": "ng/L"}, {"measurement": "Water concentration, measured end", "setting": "[10]; 20 °C", "result": "2 ± 1", "unit": "ng/L"}, {"measurement": "Water concentration, measured start", "setting": "[10]; 20 °C", "result": "205 ± 19", "unit": "ng/L"}, {"measurement": "half-life at 187 ng/L", "setting": "[10]; 10 °C", "result": 122, "unit": "h"}, {"measurement": "half-life at 187 ng/L", "setting": "[10]; 20 °C", "result": 47, "unit": "h"}, {"measurement": "Time of peak in plasma", "setting": "[11]", "result": "1 to 4", "unit": "h"}, {"measurement": "Water concentration, measured end", "setting": "[12]; 20 °C, static water only", "result": 7, "unit": "ng/L"}, {"measurement": "Water concentration, measured start", "setting": "[12]; 20 °C, static water only", "result": 1660, "unit": "ng/L"}, {"measurement": "half-life at 1870 ng/L", "setting": "[12]; ground water in an aerated glass aquarium, no biota", "result": 37, "unit": "h"}, {"measurement": "Time that concentrations stay above ~ 180 ng/L in the water column", "setting": "[12]; study not given", "result": "up to 2 days"}, {"measurement": "Start relative tissue concentration (Cb/Cw)", "setting": "[13]; 10 °C", "result": 0.6}, {"measurement": "End relative tissue concentration (Cb/Cw)", "setting": "[13]; 10 °C", "result": "7.5 ± 3.2 (4.0–10.4)"}, {"measurement": "Start relative tissue concentration (Cb/Cw)", "setting": "[13]; 20 °C", "result": 1.1}, {"measurement": "End relative tissue concentration (Cb/Cw)", "setting": "[13]; 20 °C", "result": 50.0}, {"measurement": "Time of peak tissue concentration", "setting": "[13]; depending on temperature", "result": "~ 6 days and 5 to 7 days and 5–7 days"}]}, {"compound": "O=C1Nc2ccc(Cl)cc2C(c2ccccc2)=NC1O", "note": "(stereo not drawn) [oxazepam]", "values": [{"measurement": "Bioconcentration in water louse compared to European perch (Perca fluviatilis)", "setting": "[14]", "result": "higher levels"}]}, {"compound": "O=C(O)C(c1ccccc1)C1CCCCN1", "note": "(stereo not drawn) [ritalinic acid, α-phenyl-2-piperidine acetic acid]", "values": [{"measurement": "Formation time of ritalinic acid in water", "setting": "[10]; 10 °C", "result": 62, "unit": "h"}, {"measurement": "Water concentration, measured end", "setting": "[10]; 10 °C", "result": "202 ± 12", "unit": "ng/L"}, {"measurement": "Water concentration, measured start", "setting": "[10]; 10 °C", "result": "11 ± 10", "unit": "ng/L"}, {"measurement": "Formation time of ritalinic acid in water", "setting": "[10]; 20 °C", "result": 65, "unit": "h"}, {"measurement": "Water concentration, measured end", "setting": "[10]; 20 °C", "result": "231 ± 12", "unit": "ng/L"}, {"measurement": "Water concentration, measured start", "setting": "[10]; 20 °C", "result": "8 ± 2", "unit": "ng/L"}, {"measurement": "Time after which ritalinic acid concentration surpasses methylphenidate in water", "setting": "[10]; water with biota, depending on temperature", "result": "48 to 100", "unit": "h"}, {"measurement": "Formation time of ritalinic acid in water", "setting": "[12]; 20 °C, static water only", "result": 79, "unit": "h"}, {"measurement": "Water concentration, measured end", "setting": "[12]; 20 °C, static water only", "result": 1606, "unit": "ng/L"}, {"measurement": "Water concentration, measured start", "setting": "[12]; 20 °C, static water only", "result": 387, "unit": "ng/L"}, {"measurement": "Time after which ritalinic acid concentration surpasses methylphenidate in water", "setting": "[12]; water without biota, depending on temperature", "result": "48 to 100", "unit": "h"}]}, {"compound": "OCCOCCN1CCN(C(c2ccccc2)c2ccc(Cl)cc2)CC1", "note": "(stereo not drawn) [hydroxyzine]", "values": [{"measurement": "Bioconcentration in water louse compared to European perch (Perca fluviatilis)", "setting": "[14]", "result": "higher levels"}]}]}
